The first assay has as its target T1, human FAAH (Homo sapiens, UniProt O00519).
T1 construct: expressed in transfected cells; host or cells: H4 cells (H4-FAAH, Geneticin-selected); crude membrane homogenates
T1 sequence (O00519 1-579): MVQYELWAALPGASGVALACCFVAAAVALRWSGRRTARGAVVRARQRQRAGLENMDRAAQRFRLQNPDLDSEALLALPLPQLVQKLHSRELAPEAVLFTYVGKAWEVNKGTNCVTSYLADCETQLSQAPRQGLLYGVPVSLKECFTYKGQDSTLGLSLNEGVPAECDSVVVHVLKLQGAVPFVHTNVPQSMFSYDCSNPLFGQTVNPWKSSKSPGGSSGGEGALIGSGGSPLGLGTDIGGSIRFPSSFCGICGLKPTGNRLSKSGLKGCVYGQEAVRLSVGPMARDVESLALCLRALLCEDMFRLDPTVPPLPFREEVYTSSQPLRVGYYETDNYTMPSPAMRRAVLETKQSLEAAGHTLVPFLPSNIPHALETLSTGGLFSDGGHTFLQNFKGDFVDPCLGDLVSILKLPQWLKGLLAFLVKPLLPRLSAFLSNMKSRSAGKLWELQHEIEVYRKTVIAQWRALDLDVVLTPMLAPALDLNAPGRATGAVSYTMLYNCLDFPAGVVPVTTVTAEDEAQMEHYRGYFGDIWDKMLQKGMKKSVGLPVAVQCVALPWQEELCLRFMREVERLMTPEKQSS
Nature of the assay: FAAH activity in membrane homogenates of H4-FAAH cells, [3H]-anandamide hydrolysis.
Conditions: not given
Type of assay: biochemical. As for the experimental part: Homogenates of crude membranes were prepared from H4 cells that express transfected human FAAH (H4-FAAH cells). Briefly, cells were grown in DMEM supplemented with 10% FBS and Geneticin at a final concentration of 500 μg/ml (Gibco BRL, Rockville, Md.). Confluent cultures of H4-FAAH cells were rinsed twice with phosphate-buffered saline [138 mM NaCl, 4.1 mM KCl, 5.1 mM Na2PO4, 1.5 mM KH2PO4 (pH 7.5), 37° C.] and incubated for 5 to 10 minutes at 4° C. in lysis buffer [1 mM sodium bicarbonate]. Cells were transferred from plates to polypropylene tubes (16×100 mm), homogenized and centrifuged at 32,000×g for 30 minutes. Pellets were resuspended by homogenization in lysis buffer and centrifuged at 32,000×g for 30 minutes. Pellets were resuspended in lysis buffer (15-20 μg protein/ml) then stored at −80° C. until needed. On the day of an experiment, membranes were diluted to 2.67 μg protein/ml in 125 mM Tris-Cl, pH 9.0.
Activity of FAAH was measured using a modification of the method described by Omeir et al., 1995 (Life Sci 56:1999, 1995). Membrane homogenates (240 ng protein) were incubated at room temperature for one hour with 1.67 nM anandamide [ethanolamine 1-^3H] (available from American Radiolabeled Chemical Inc., St Louis, Mo.) and 10 μM anandamide (available from Sigma/RBI, St. Louis, Mo.) in the absence and presence of inhibitors. The reaction was stopped by the addition of 1 volume of a solution of 1:1 methanol and dichloroethane. The mixture was shaken and then centrifuged at 1000×g for 15 minutes to separate the aqueous and organic phases. An aliquot of the aqueous phase, containing [^3H]-ethanolamine was withdrawn and counted by scintillation spectroscopy. Data were expressed as the percentage of [^3H]-ethanolamine formed versus vehicle, after subtraction of the background radioactivity determined in the presence of 10 μM arachidonyl trifluoromethyl ketone (ATFMK), an inhibitor of FAAH. IC50 values were determined using a four-parameter logistic equation for dose-response curves.
The compound `CCCCCCCCCCOc1ccc(NC(=O)Oc2ccccc2)cc1` [Example 101, 4-Decyloxyphenylcarbamic acid, phenyl ester] came in with an IC50 below 10 nM.

`CCCCCCCCCCCOc1ccc(NC(=O)Oc2ccccc2)cc1` [Example 103, 4-Undecyloxyphenylcarbamic acid, phenyl ester] yielded an IC50 below 10 nM. Still for that read-out and setting: the same measure for `CCCCCCCCCCCOc1ccc(NC(=O)Oc2ccccc2F)cc1` [Example 104, 4-Undecyloxyphenylcarbamic acid, 2-fluorophenyl ester]: 10 to 100 nM.

Staying with this assay, now noted: H4-FAAH cell membranes, 10 μM anandamide, room temperature, one hour; read-out: IC50.
As for `CCc1ccc(-c2ccc(NC(=O)O/N=C/c3ccccc3)cc2)cc1` [Example 74, Benzaldehyde, O-[[(4′-ethyl-[1,1′-biphenyl]-4-yl)amino]carbonyl]oxime], the 50% inhibitory concentration (IC50) was below 10 nM. As for `CCc1ccc(-c2ccc(NC(=O)O/N=C/c3ccc(F)cc3)cc2)cc1` [Example 75, 4-Fluorobenzaldehyde, O-[[(4′-ethyl-[1,1′-biphenyl]-4-yl)amino]carbonyl]oxime], the half-inhibitory concentration (IC50) was below 10 nM. Take `O=C(Nc1ccc(Oc2ccccc2)cc1)O/N=C/c1ccccc1` [Example 76, Benzaldehyde, O-[[(4-phenoxyphenyl)amino]carbonyl]oxime]: the IC50 was below 10 nM. The same measure, in the same setting: in the case of `O=C(Nc1ccc(Oc2ccccc2)cc1)O/N=C/c1ccc(F)cc1` [Example 77, 4-Fluorobenzaldehyde, O-[[(4-phenoxyphenyl)amino]carbonyl]oxime] it was below 10 nM. On the same count and under the same terms, the same measure for `O=C(Nc1ccc(OCc2ccccc2)cc1)O/N=C/c1cccnc1` [Example 78, 3-Pyridinecarboxaldehyde, O-[[[4-(phenylmethoxy)phenyl]amino]carbonyl]oxime]: below 10 nM; for `O=C(Nc1ccc(OCCc2ccccc2)cc1)O/N=C/c1cccnc1` [Example 79, 3-Pyridinecarboxaldehyde, O-[[[4-(2-phenylethoxy)phenyl]amino]carbonyl]oxime]: below 10 nM; for `O=C(Nc1ccc(OCCCc2ccccc2)cc1)O/N=C/c1cccnc1` [Example 80, 3-Pyridinecarboxaldehyde, O-[[[4-(3-phenylpropoxy)phenyl]amino]carbonyl]oxime]: below 10 nM.

Consider `O=C(Nc1ccc(OCc2ccccc2)cc1)O/N=C/c1ccc(F)cc1` [Example 81, 4-Fluorobenzaldehyde, O-[[[4-(phenylmethoxy)phenyl]amino]carbonyl]oxime], for which the half-maximal inhibitory concentration (IC50) is below 10 nM. For `O=C(Nc1ccc(OCCc2ccccc2)cc1)O/N=C/c1ccc(F)cc1` [Example 82, 4-Fluorobenzaldehyde, O-[[[4-(2-phenylethoxy)phenyl]amino]carbonyl]oxime], the IC50 was below 10 nM. Take `O=C(Nc1ccc(OCCCc2ccccc2)cc1)O/N=C/c1ccc(F)cc1` [Example 83, 4-Fluorobenzaldehyde, O-[[[4-(3-phenylpropoxy)phenyl]amino]carbonyl]oxime]: the 50% inhibitory concentration (IC50) is below 10 nM. Still for that read-out and setting: in the case of `O=C(Nc1ccc(OCc2ccccc2)cc1)O/N=C/c1ccccc1` [Example 84, Benzaldehyde, O-[[[4-(phenylmethoxy)phenyl]amino]carbonyl]oxime] it was below 10 nM; in that of `O=C(Nc1ccc(OCCc2ccccc2)cc1)O/N=C/c1ccccc1` [Example 85, Benzaldehyde, O-[[[4-(2-phenylethoxy)phenyl]amino]carbonyl]oxime], below 10 nM.

With `O=C(Nc1ccc(OCCCc2ccccc2)cc1)O/N=C/c1ccccc1` [Example 86, Benzaldehyde, O-[[[4-(3-phenylpropoxy)phenyl]amino]carbonyl]oxime], the IC50 is below 10 nM. Same read-out and setting: the same measure for `O=C(Nc1cccc(Oc2ccccc2)c1)O/N=C/c1cccnc1` [Example 87, 3-Pyridinecarboxaldehyde, O-[[(3-phenoxyphenyl)amino]carbonyl]oxime]: below 10 nM; for `O=C(Nc1cccc(Oc2ccccc2)c1)O/N=C/c1ccc(F)cc1` [Example 88, 4-Fluorobenzaldehyde, O-[[(3-phenoxyphenyl)amino]carbonyl]oxime]: below 10 nM; for `O=C(Nc1cccc(Oc2ccccc2)c1)O/N=C/c1ccccc1` [Example 91, Benzaldehyde, O-[[(3-phenoxyphenyl)amino]carbonyl]oxime]: below 10 nM.

Consider `O=C(Nc1ccccc1Oc1ccccc1)O/N=C/c1cccnc1` [Example 92, 3-Pyridinecarboxaldehyde, O-[[(2-phenoxyphenyl)amino]carbonyl]oxime], for which the half-maximal inhibitory concentration (IC50) was above 500 nM. Still for that read-out and setting: the same measure for `CCCCCCOc1ccc(NC(=O)Oc2ccccc2)cc1` [Example 93, 4-Hexyloxyphenylcarbamic acid, phenyl ester]: 10 to 100 nM; for `CCCCCCOc1ccc(NC(=O)Oc2ccccc2F)cc1` [Example 94, 4-Hexyloxyphenylcarbamic acid, 2-fluorophenyl ester]: above 500 nM.

With `CCCCOc1ccc(NC(=O)OC)cc1` [Example 95, 4-Butoxyphenylcarbamic acid, methyl ester], the IC50 is above 500 nM. On the same count and under the same terms, the same measure for `CCCCCCCOc1ccc(NC(=O)Oc2ccccc2)cc1` [Example 96, 4-Heptyloxyphenylcarbamic acid, phenyl ester]: below 10 nM; for `CCCCCCCOc1ccc(NC(=O)Oc2ccccc2F)cc1` [Example 97, 4-Heptyloxyphenylcarbamic acid, 2-fluorophenyl ester]: 10 to 100 nM; for `CCCCCCCCOc1ccc(NC(=O)Oc2ccccc2)cc1` [Example 98, 4-Octyloxyphenylcarbamic acid, phenyl ester]: below 10 nM. Consider `CCCCCCCCOc1ccc(NC(=O)Oc2ccccc2F)cc1` [Example 99, 4-Octyloxyphenylcarbamic acid, 2-fluorophenyl ester], for which the IC50 was 10 to 100 nM.

As to `CCCCOc1ccc(NC(=O)Oc2ccc(Cl)cc2)cc1` [Example 100], the IC50 was in the range of 10 to 100 nM.

Regarding `CCCCCCCCCCOc1ccc(NC(=O)Oc2ccccc2F)cc1` [Example 102, 4-Decyloxyphenylcarbamic acid, 2-fluorophenyl ester], the IC50 was below 10 nM. In the case of `CCCCCCCCCCCCOc1ccc(NC(=O)Oc2ccccc2)cc1` [Example 105, 4-Dodecyloxyphenylcarbamic acid, phenyl ester], the IC50 is below 10 nM. Still for that read-out and setting: the same measure for `CCCCCCCCCCCCOc1ccc(NC(=O)Oc2ccccc2F)cc1` [Example 106, 4-Dodecyloxyphenylcarbamic acid, 2-fluorophenyl ester]: 10 to 100 nM. As to `CCCCOc1ccc(NC(=O)Oc2ccccc2F)cc1` [Example 107, 4-Butoxyphenylcarbamic acid, 2-fluorophenyl ester], the concentration for half-maximal inhibition (IC50) fell in the range of 101 to 500 nM. In the case of `CCCCOc1ccc(NC(=O)Oc2ccc(F)cc2)cc1` [Example 108, 4-Butoxyphenylcarbamic acid, 4-fluorophenyl ester], the IC50 was 101 to 500 nM. Same read-out and setting: the same measure for `CCCCOc1ccc(NC(=O)Oc2ccc(F)c(F)c2)cc1` [Example 109, 4-Butoxyphenylcarbamic acid, 3,4-difluorophenyl ester]: above 500 nM. Still for that read-out and setting: the same measure for `CCCCOc1ccc(NC(=O)Oc2ccccc2OC)cc1` [Example 110, 4-Butoxyphenylcarbamic acid, 2-methoxyphenyl ester]: above 500 nM; for `CCCCOc1ccc(CNC(=O)Oc2ccccc2)cc1` [Example 111, 4-(Butoxyphenylmethyl)carbamic acid, phenyl ester]: below 10 nM; for `CCCCOc1ccc(CNC(=O)Oc2ccccc2F)cc1` [Example 112, 4-(Butoxyphenylmethyl)carbamic acid, 2-fluorophenyl ester]: below 10 nM. On to `CCCCOc1ccc(CNC(=O)Oc2ccc(OC)cc2)cc1` [Example 113, 4-(Butoxyphenylmethyl)carbamic acid, 4-methoxyphenyl ester], for which the half-inhibitory concentration (IC50) was below 10 nM.

In the case of `CCCCOc1ccc(CNC(=O)Oc2cccc3ccccc23)cc1` [Example 115, 4-(Butoxyphenylmethyl)carbamic acid, 1-naphthalenyl ester], the IC50 is 10 to 100 nM.

Source of the values: patent US6949574B2 (Bristol-Myers Squibb Company, priority 2002, dated 2005).
